“Also recorded” adds a separate entry of the source.
Assays:
A549 xenograft = details: for reduction in tumor growth as a single agent: A549, FIG. 9A, erlotinib 100 mg/kg/day oral gavage
Description: (§1) Mice were removed from the study when their tumor size reached 800 mm^3, and the animals remaining in each group (% remaining) were plotted. C. […] 12A11 and anti-VEGF was administrated IP at 30 mg/kg and 1 mg/kg, respectively, twice a week, starting when the mean tumor size reached 100 mm^3 (day 0). […] Cell lysates from tumors were analyzed by Western blot for Axl expression. […] Tumors from mice treated as above in D were excised at 0 and 72 hr post dosing and tumor vasculature was visualized by staining with MECA32 immunohistochemistry and quantified by image analysis (expressed as microns square).
All studies were conducted in accordance with the “Guide for the Care and Use of Laboratory Animals” (NIH), and approved by the Institutional Animal Care and Used Committee (IACUC). A total of 5×10^6 (A549) or 10^7 cells in matrigel (MDA-MB-231) were implanted subcutaneously into right flank of nude (A549) or SCID mice (MDA-MB-231), respectively. When the average tumor sized reached 100 mm^3, mice were randomized and divided into different treatment groups (n=10 for each group). Anti-Axl or control IgG1 antibodies were at administrated at 10-30 mg/kg, anti-VEGF at 1-2 mg/kg, via intraperitoneal injection (IP), twice weekly. Erlotinib was administrated by oral gavage at 100 mg/kg/day. Paclitaxel and carboplatin were administrated subcutaneously at 6.25 mg/kg/day for 5 days, and 100 mg/kg for a single dose, respectively, at the beginning of the treatment. Statistic analyses were performed using Anova two-way for comparison of tumor growth in different treatment groups.

tumor vasculature [1] = experiment: Intra-tumoral vascular density (MECA32) in MDA-MB-231 xenograft tumors; assay type: in vivo, SCID mice; details: MDA-MB-231 tumors
Description: (§2) Cell lysates from tumors were used in Western blot analysis for Axl expression. […] F. Axl is highly expressed in infiltrating macrophages of primary human breast cancer. Immunohistochemistry was used to examine 79 primary tumors. 21% of these tumors express high levels of Axl in the infiltrating macrophages. Macrophages were identified by staining with anti-CD68, and expression of Axl on macrophages was determined by anti-Axl/CD68 dual IHC. Serial sections were used. […] Tumor associated macrophages were isolated by sorting for F4/80 positive cells and cultured overnight. Cytokines and chemokines secreted into the medium were measured using the Bio-Plea mouse cytokine assay kit.
(§3) Tumor samples were stained with MECA32, a pan endothelial cell marker. Images were acquired by the Ariol SL-50 automated slide scanning platform (Genetix Ltd.; Hampshire, UK) at 100× final magnification. Tumor-specific areas were exported for analysis in the Metamorph software package (MDS Analytical Technologies; Ontario, Canada) as individual 8-bit images. […] Area measurements were recorded for individual vessels, as well as the tumor and non-tumor areas in each image. Raw values based on image analysis were analyzed using the JMP 8.0 software (SAS Institute, Inc. North Carolina, USA). […]

cynomolgus Axl = experiment: Cross reaction ELISA, cynomolgus Axl; assay type: binding
Description: (§4) A-B. Affinity measurement of YW327.6S2 using BIAcore. Association rates (kon) and dissociation rates (koff) were calculated using the one-to-one Langmuir binding model. The equilibrium dissociation constant (Kd) was derived as the […]. C. […] Plates were coated with anti-human IgG Fc, and then incubated with human Axl, Mer, Tyro3 Fcs, mouse or cynomolgus AxlFcs. After washing, isotype control antibody or YW327.6S2 was added and followed by HRP conjugated anti-human IgG. […] FIG. 7D: ELISA. Plates were coated with anti-human IgG Fc and incubated with human Axl-Fc. After washing, Gas6 was added with or without antibodies. Binding of Gas6 was detected by biotylated anti-Gas6 antibody and streptavidin-HRP conjugate. FIG. 7E: FACS. […] Binding of Gas6 to the cell surface was detected by biotylated anti-Gas6 antibody and streptavidin-PE conjugate. […] Phosphorylated Axl was measured by ELISA (upper panel), and phosphorylated Akt by Western Blotting analysis (lower panel). […] Cell viability was measured by CellTiter Glo assay.
ELISA assays were performed as follows: goat anti-human IgG Fc coated plates were blocking with 0.5% BSA, PBS, 0.05% Tween 20 (PBST). […] Secreted Ang-2 and DKK3 was measured using R&D ELISA kit, according to the manufacturer's instruction. Axl expression on cell surface was determined by FACS using standard techniques. […] Samples were analyzed on BD FACScalibur Flow Cytometer.

[2] = tested on: tumor-associated macrophages; experiment: Cytokine/chemokine secretion from tumor-associated macrophages of MDA-MB-231 xenografts; assay type: in vivo, mice; details: MDA-MB-231 tumors treated one week, 20 mg/kg, versus control antibody
Description: as §2
Tumors were dissected, chopped into small pieces and incubated in RPMI1640 medium with 2.5% FBS, 0.2 units/ml Liberase Blendzymes II and 5 units/ml DNaseI, (Roche). Tumor cells were disassociated using MACS Dissociator (Miltenyi Biotec) and maintained for 20 minutes at room temperature. EDTA (final concentration 0.002%) was added to stop the reaction. Single cell suspensions were prepared, and red blood cells were removed using RBC lysis buffer (eBioscience). […] Cultured media was collected and the levels of cytokines and chemokines were determined using Bio-Plex mouse cytokine assays (Bio-Rad) according to manufacturer's instructions.

Akt = experiment: Gas6-induced Akt phosphorylation in H1299 cells (Western blotting); assay type: cell-based, human; details: pre-incubated 4 hrs, Gas6 30 minutes
Description: as §4

tumor vasculature [3] = experiment: Intratumoral vascular density (MECA32) in A549 xenograft tumors; assay type: in vivo, mice
Description: as §1
as §3, with “images. The brown DAB-specific staining was isolated from the Hematoxylin counterstain using a blue-normalization algorithm as described (Brey et al, 2003).” for “images.”

MDA-MB-231 xenograft = MDA-MB-231 xenograft tumor growth; assay type: in vivo, SCID mice
A549 xenograft tumors = experiment: Cleaved caspase 3 and Ki67 IHC of A549 xenograft tumors; assay type: in vivo, mice; details: A549 tumors treated two weeks, versus control
Description: B. Kaplan-Meier curve of various treatment groups. […] C. 12A11 enhances the effect of anti-VEGF.
Xenograft tumor samples were fixed in 10% neutral buffered formalin, processed, embedded in paraffin, and sectioned at 4 μm. Thin sections were then treated with primary antibodies for Ki67, cleaved caspase 3 and MECA32, followed by biotinylated secondary antibodies and the DAB chromagen.

[4] = tested on: MDA-MB-231 breast cancer cells; experiment: MDA-MB-231 metastasis after tail vein injection (bioluminescence); assay type: in vivo, SCID mice
Description: A. Bioluminescence imaging 4 weeks after tail vein injection of tumor cells. Mice were injected intraperitoneally (i.p.) with 200 μL of 25 mg/ml D-luciferin (Invitrogen) in PBS and were anesthetized during imaging using isoflurane via nose cone. Bioluminescence images were acquired on the Photon Imager (Biospace Lab, Paris, France) that has an intensified charge-coupled device camera. B. H & E staining of the tibia sections.
For metastasis studies, 5×10^5 MDA-MB-231 cells stably transfected with a luciferase reporter gene (Li et al, 2009) were implanted into SCID mice via tail vein injection. Metastasis of tumor cells to various organs was monitor by bioluminescence detection as described (Li et al, 2009).

[5] = target: T1, human Axl ECD-His protein (human, UniProt P30530 26-451); experiment: SPR (BIAcore-3000); anti-Axl human IgG captured by anti-human IgG, human Axl ECD-His injected
T1 construct: also called Hu Axl; not shown: His tag
T1 sequence (P30530 other isoform, or with tags, fused parts or gaps): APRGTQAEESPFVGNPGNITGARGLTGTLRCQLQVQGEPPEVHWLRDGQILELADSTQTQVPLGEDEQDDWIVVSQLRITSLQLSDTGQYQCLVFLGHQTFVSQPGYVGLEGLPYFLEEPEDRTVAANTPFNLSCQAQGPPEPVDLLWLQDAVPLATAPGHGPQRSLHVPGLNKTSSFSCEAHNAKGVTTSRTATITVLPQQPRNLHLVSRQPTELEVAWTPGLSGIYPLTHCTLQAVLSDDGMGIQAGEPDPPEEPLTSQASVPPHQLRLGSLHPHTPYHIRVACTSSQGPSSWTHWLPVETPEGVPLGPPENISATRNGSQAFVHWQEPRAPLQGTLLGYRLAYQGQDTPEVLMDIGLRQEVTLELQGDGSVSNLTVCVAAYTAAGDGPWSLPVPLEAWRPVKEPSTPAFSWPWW

C#Cc1cccc(Nc2ncnc3cc(OCCOC)c(OCCOC)cc23)c1 [erlotinib, reference compound] was tested, and the “reduction in tumor growth as a single agent” value (A549 xenograft) was 30%.

With “YW327.6S2: Affinity matured phage-derived human anti-Axl monoclonal antibody, from clone YW327.6” the “intra-tumoral vascular density, single antibody versus control” value (tumor vasculature [1]) was “significantly reduced; also recorded: reduces”, the “tumor associated vascular density, combination with anti-VEGF” value (tumor vasculature [1]) was “further reduction” and the “binding to cynomolgus Axl” value (cynomolgus Axl) was “binds; also recorded: cross reacts”. For the same molecule, the “inflammatory cytokines and chemokines produced by TAMs” value [2] was “much lower levels; also recorded: inhibits”, the “Gas6-induced phosphorylation of Akt” value (Akt) was “blocks” and the “intratumoral vascular density, antibody alone” value (tumor vasculature [3]) was “did not significantly reduced”. For the same molecule, the “intratumoral vascular density, combination with anti-VEGF” value (tumor vasculature [3]) was “significant decrease; also recorded: enhances the effect of anti-VEGF in reducing intra-tumoral vascular density”, the “reduction in tumor growth as a single agent” value (A549 xenograft) was 30% and the “tumor growth inhibition by single agent” value (A549 xenograft; A549, YW327.6S2 10 mg/kg or anti-VEGF 1 mg/kg IP twice a week) was 30%. The “duration of tumor stasis after treatment cessation” value (A549 xenograft; A549, co-administration with anti-VEGF) was “at least 4 weeks”, the “effect on the anti-tumor effect of anti-VEGF” value (A549 xenograft; A549, combination with anti-VEGF 1 mg/kg) was “enhances” and the “tumor re-growth from last dose to day 85” value (A549 xenograft; A549, in combination with anti-VEGF) was “no tumor re-growth”. The “survival at end of experiment (Kaplan-Meier, tumor size 800 mm^3 cutoff)” value (A549 xenograft; A549, in combination with anti-VEGF, day 85) was “survival of all the animals”, the “delay of tumor growth compared to a single agent” value (A549 xenograft; A549, in combination with anti-VEGF, dosed 60 days, followed to day 85) was “significantly delayed tumor growth” and the “reduction of tumor growth rate in combination with erlotinib” value (A549 xenograft; mouse, in vivo) was “more than 50%”. The “tumor growth inhibition by the combination treatment” value (A549 xenograft; mouse, in vivo) was 60%, the “reduction of tumor growth, antibody alone” value (MDA-MB-231 xenograft; 20 mg/kg IP twice a week) was 25% and the “reduction in tumor growth, combination therapy with anti-VEGF” value (MDA-MB-231 xenograft; 20 mg/kg with anti-VEGF 2 mg/kg) was 50%. For the same molecule, the Ki67 positive nuclei (A549 xenograft tumors) was “no significant difference”, the “cleaved caspase 3 (CC3), apoptosis” value (A549 xenograft tumors) was “increased; also recorded: induces apoptosis” and the “sites detected by bioluminescence, total for the entire group” value ([4]; four weeks after injection, control group total 18) was 7. The “metastasis of MDA-MB-231 cells (sites detected by bioluminescence), in words” value ([4]; versus control antibody) was “significantly reduced; also recorded: reduces”.

B1: YW327.6S2 (antibody, V domains shown)
VH: EVQLVESGGGLVQPGGSLRLSCAASGFSLSGSWIHWVRQAPGKGLEWVGWINPYRGYAYYADSVKGRFTISADTSKNTAYLQMNSLRAEDTAVYYCAREYSGWGGSSVGYAMDYWGQGTLV
VL: DIQMTQSPSSLSASVGDRVTITCRASQDVSTAVAWYQQKPGKAPKLLIYSASFLYSGVPSRFSGSGSGTDFTLTISSLQPEDFATYYCQQSYTTPPTFGQGTKVEIKR
In the case of B1, the Kd [5] is reported as roughly 1 nM.
